In patent US12010991B1, “Microemulsion with disinfectant properties” (priority 2021, dated 2024):
Read-outs that look alike come from different tables or passages of the source.

In the case of `Cc1ccc(C(C)C)cc1O` [Example 2, Carvacerol], the “H2O (clarity)” value (Solvent C8-10 Acid Ethanol, Surfactant/Solubilizer Polysorbate 20) was “Clear”, the “H2O (clarity)” value (Solvent Ethanol, Surfactant/Solubilizer Polysorbate 20) was “Cloudy” and the “H2O (clarity)” value (Solvent NONE, Surfactant/Solubilizer Polysorbate 20 Polysorbate 80) was “Clear”. For the same compound, the “H2O (clarity)” value (Solvent NONE, Surfactant/Solubilizer Quat 242 Ti-Nat) was “Clear”, the “H2O (clarity)” value (Solvent Propanediol, Surfactant/Solubilizer AB-1 (first entry)) was “Not Clear” and the “H2O (clarity)” value (Solvent Propanediol, Surfactant/Solubilizer AB-1 (second entry)) was “Not Clear”. The “H2O (clarity)” value (Solvent Propanediol, Surfactant/Solubilizer Polyglycerol) was “Not Clear”, the “H2O (clarity)” value (Solvent Propanediol, Surfactant/Solubilizer Polyglycerol D9) was “Not Clear” and the “H2O (clarity)” value (Solvent Propanediol, Surfactant/Solubilizer Polyglycerol D9 SugarNate) was “Not Clear”. For the same compound, the “H2O (clarity)” value (Solvent Propanediol, Surfactant/Solubilizer Quat 242 Ti-Nat) was “Not Clear”, the “H2O (clarity)” value (Solvent Propanediol, Surfactant/Solubilizer Quat 242 Ti-Nat AB-1) was “Not Clear” and the “H2O (clarity)” value (Solvent Propanediol, Surfactant/Solubilizer SugaNate 160) was “Not Clear”.
